Where two headings read alike, the source gives them in different places.
Tests used:
[1] = target: T1, RARα (Homo sapiens, UniProt P10276); assay: Co-transfection assay; format: cell-based; conditions: read-out: RARα Pot
T1 sequence (P10276 1-462): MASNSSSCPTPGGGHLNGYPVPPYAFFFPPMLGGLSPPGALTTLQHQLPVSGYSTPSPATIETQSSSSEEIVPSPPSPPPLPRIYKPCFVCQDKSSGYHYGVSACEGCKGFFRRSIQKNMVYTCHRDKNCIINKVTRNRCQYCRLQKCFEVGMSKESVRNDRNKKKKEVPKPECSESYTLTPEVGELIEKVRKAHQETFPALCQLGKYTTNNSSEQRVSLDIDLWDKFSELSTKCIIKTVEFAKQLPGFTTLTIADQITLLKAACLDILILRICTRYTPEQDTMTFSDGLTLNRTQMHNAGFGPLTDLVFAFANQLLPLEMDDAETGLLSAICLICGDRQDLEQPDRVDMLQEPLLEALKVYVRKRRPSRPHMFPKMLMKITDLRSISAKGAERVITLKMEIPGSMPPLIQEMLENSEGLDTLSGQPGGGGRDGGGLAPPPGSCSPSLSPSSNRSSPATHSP

[2] = target: T2, RARβ (Homo sapiens, UniProt P10826); assay: Co-transfection assay; format: cell-based; conditions: read-out: RARβ Pot
T2 sequence (P10826 1-448 isoform P10826-2): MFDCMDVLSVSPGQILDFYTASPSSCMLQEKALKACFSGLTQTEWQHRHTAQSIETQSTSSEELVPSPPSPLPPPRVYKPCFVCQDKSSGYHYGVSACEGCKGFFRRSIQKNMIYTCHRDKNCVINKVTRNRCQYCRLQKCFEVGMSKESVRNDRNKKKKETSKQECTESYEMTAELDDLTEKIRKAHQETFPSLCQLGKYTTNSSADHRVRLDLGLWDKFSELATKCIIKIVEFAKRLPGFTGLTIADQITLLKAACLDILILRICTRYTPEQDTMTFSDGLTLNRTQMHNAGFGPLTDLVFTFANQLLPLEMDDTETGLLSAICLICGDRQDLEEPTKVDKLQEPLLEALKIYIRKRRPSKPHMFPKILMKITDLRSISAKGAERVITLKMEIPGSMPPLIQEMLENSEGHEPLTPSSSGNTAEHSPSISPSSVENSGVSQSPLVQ

[3] = target: T3, RARγ (Homo sapiens, UniProt P13631); assay: Co-transfection assay; format: cell-based; conditions: read-out: RARγ Pot
T3 sequence (P13631 1-454): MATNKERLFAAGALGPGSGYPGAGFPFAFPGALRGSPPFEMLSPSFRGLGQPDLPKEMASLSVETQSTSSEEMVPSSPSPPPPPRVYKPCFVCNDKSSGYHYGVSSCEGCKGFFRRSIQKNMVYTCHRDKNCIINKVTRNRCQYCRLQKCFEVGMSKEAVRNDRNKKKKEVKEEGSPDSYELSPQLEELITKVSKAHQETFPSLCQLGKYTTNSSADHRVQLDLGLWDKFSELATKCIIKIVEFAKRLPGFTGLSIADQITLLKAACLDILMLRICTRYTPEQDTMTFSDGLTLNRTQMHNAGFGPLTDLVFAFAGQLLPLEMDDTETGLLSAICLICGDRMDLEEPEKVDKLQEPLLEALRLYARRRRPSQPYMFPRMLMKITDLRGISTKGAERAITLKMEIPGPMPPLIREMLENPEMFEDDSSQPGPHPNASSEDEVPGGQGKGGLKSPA

[4] = target: T4, RXRα (Homo sapiens, UniProt P19793); assay: Co-transfection assay; format: cell-based; conditions: read-out: RXRα Pot
T4 sequence (P19793 1-462): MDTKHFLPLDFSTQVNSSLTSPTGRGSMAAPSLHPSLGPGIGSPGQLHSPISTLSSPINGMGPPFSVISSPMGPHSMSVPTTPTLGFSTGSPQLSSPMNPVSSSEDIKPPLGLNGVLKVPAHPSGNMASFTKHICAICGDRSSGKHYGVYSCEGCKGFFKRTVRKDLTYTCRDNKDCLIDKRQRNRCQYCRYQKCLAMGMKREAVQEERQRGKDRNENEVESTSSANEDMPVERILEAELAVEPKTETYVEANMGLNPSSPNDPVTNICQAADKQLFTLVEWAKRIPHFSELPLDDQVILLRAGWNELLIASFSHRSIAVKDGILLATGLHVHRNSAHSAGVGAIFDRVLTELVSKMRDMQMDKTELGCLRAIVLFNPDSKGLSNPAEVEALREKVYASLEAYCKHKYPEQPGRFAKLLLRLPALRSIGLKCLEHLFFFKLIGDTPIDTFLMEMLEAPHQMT

[5] = target: T5, RXRβ (Mus musculus, UniProt P28704); assay: Co-transfection assay; format: cell-based; conditions: read-out: RXRβ Pot
T5 sequence (P28704 1-520): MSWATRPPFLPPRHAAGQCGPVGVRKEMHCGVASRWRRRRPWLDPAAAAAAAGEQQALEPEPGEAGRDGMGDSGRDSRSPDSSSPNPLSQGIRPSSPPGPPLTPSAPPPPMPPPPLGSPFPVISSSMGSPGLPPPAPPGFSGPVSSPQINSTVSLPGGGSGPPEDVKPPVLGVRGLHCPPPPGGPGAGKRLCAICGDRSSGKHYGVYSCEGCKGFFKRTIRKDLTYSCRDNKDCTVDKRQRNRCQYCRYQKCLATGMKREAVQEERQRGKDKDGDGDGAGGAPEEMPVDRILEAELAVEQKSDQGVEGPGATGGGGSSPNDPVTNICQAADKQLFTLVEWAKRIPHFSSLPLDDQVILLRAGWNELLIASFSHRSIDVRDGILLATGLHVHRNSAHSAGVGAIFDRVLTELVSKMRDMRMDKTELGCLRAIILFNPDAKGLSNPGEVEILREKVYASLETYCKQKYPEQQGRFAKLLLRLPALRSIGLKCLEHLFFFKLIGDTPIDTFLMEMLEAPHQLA

[6] = target: T6, RXRγ (Mus musculus, UniProt P28705); assay: Co-transfection assay; format: cell-based; conditions: read-out: RXRγ Pot
T6 sequence (P28705 1-463): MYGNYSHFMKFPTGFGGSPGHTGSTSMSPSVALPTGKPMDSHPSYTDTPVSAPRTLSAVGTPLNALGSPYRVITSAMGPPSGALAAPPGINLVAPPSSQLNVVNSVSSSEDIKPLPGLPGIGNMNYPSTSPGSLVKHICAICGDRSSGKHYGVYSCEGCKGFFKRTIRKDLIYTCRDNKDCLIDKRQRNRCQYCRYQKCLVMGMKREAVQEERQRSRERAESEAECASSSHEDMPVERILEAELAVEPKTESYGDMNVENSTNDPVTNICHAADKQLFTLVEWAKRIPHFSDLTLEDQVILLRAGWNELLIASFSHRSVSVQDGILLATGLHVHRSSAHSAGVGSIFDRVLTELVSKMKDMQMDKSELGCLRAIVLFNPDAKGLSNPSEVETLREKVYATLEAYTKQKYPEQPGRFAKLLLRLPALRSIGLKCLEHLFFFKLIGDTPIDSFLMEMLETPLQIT

[7] = target: T1, RARα; assay: Receptor binding (competition with tritiated retinoids); conditions: from IC50 by Cheng-Prussof equation
[8] = test system: RPMI 8226 cell line; assay: Viability (tetrazolium dye, MTS); format: cell-based; conditions: Homo sapiens, 96 hours, mitochondrial function / viability
[9] = test system: ME 180 cell line; assay: Viability (tetrazolium dye, MTS); format: cell-based; conditions: Homo sapiens, 96 hours, mitochondrial function / viability
[10] = test system: AML-193 cell line; assay: Viability (tetrazolium dye, MTS); format: cell-based; conditions: Homo sapiens, 96 hours, mitochondrial function / viability
[11] = test system: TPA induction of ODC; assay: Ornithine decarboxylase (ODC) assay, inhibition of TPA induction of ODC; format: cell-based; conditions: concentration required to inhibit the TPA induction of ODC by 80 percent

Molecule	EC50 [1]	EC50 [2]	EC50 [3]	EC50 [4]	EC50 [5]	EC50 [6]	other results
COc1ccc(/C(C)=C/C=C/C(C)=C/C(=O)O)cc1OC [A, (2E,4E,6E)-3-methyl-7-(3,4-dimethoxyphenyl)octa-2,4,6-trienoic acid, reference compound]	> 10000 nM	1480 nM	> 10000 nM	> 10000 nM	> 10000 nM	> 10000 nM	Kd [7]: 312 nM
CC1=C(/C=C/C(C)=C/C=C/C(C)=C/C(=O)O)C(C)(C)CCC1 [ATRA, all-trans retinoic acid, reference compound]							IC50 [8]: 756 nM; IC50 [9]: 890 nM; IC50 [10]: 1000 nM
COc1ccc(/C(C)=C/C=C/C(C)=C/C(=O)O)cc1 [B, (2E,4E,6E)-3-methyl-7-(4-methoxyphenyl)octa-2,4,6-trienoic acid, reference compound]	> 10000 nM	> 10000 nM	> 10000 nM	> 10000 nM	> 10000 nM	> 10000 nM	
COc1cc(C)c(/C=C/C=C/C=C(\C)C(=O)O)c(C)c1C [C, (2E,4E,6E)-2-methyl-7-(2,3,6-trimethyl-4-methoxyphenyl)hepta-2,4,6-trienoic acid, reference compound]	> 10000 nM	> 10000 nM	> 10000 nM	> 10000 nM	> 10000 nM	> 10000 nM	
CCOC(=O)/C=C(C)/C=C/C=C(\C)c1cc(C(C)(C)C)cc(C(C)(C)C)c1 [Compound 7, Ethyl (2E, 4E, 6E)-7-(3,5-di-t-butylphenyl)-3-methylocta-2,4,6-trienoate]							IC80 [11]: 4.73 nM
CCOC(=O)/C=C(C)/C=C/C=C(/C)c1cc(C(C)(C)C)cc(C(C)(C)C)c1 [Compound 8, Ethyl (2E,4E, 6Z)-7-(3,5-di-t-butylphenyl)-3-methylocta-2,4,6-trienoate]							IC80 [11]: 152 nM
CCC/C(=C/C=C/C(C)=C/C(=O)O)c1cc(C(C)(C)C)cc(C(C)(C)C)c1 [Compound 28, (2E, 4E, 6Z)-7-(3,5-di-t-butylphenyl)-3-methyldeca-2,4,6-trienoic acid]	> 10000 nM	> 10000 nM	> 10000 nM	20 nM	104 nM	50 nM	
CC(/C=C/C=C1\CCOc2c1cc(C(C)(C)C)cc2C(C)(C)C)=C\C(=O)O [Compound 39, (2E,4E,6E)-6-(6,8,-Di-t-butylchroman-4-ylidene)-3-methylhexa-2,4,6-trienoic acid]	5 nM	3 nM	3 nM	> 10000 nM	> 10000 nM	> 10000 nM	
CC(/C=C/C=C(\C)c1cc(C(F)(F)F)cc(C(F)(F)F)c1)=C\C(=O)O [Compound 41, (2E, 4E, 6E)-7-(3,5-Di-trifluoromethylphenyl)-3-methylocta-2,4,6-trienoic acid]	3 nM	1 nM	4 nM	2010 nM	266 nM	2180 nM	
C/C(=C/C=C/C(C)=C/C(=O)O)c1cc(C(C)C)cc(C(C)C)c1 [Compound 43, (2E, 4E, 6Z)-7-(3,5-Di-isopropylphenyl)-3-methylocta-2,4,6-trienoic acid]	65 nM	22 nM	16 nM	27 nM	27 nM	19 nM	
COc1c(C(C)(C)C)cc(/C(C)=C/C=C/C(C)=C/C(=O)O)cc1C(C)(C)C [Compound 47, (2E, 4E, 6E) -3-Methyl-7-(3,5-di-t-butyl-4-methoxyphenyl)octa-2,4,6-trienoic acid]	> 10000 nM	1 nM	1 nM	> 10000 nM	> 10000 nM	> 10000 nM	
COC(/C=C/C=C(\C)c1ccc(C(C)(C)C)cc1)=C/C(=O)O [D, (2E,4E,6E)-3-methoxy-7-(4-t-butylphenyl)octa-2,4,6-trienoic acid, reference compound]	> 10000 nM	> 10000 nM	> 10000 nM	> 10000 nM	> 10000 nM	> 10000 nM	
(2E,4E,6Z)-3-Methyl-7-(3,4-diethyl-6-methylphenyl)nona-2,4,6-trienoic acid [Compound 54]							EC50 ([1]; CV-1 cells, pRShRARα, D-MTV-LUC reporter, 40 hours, potency = EC50): > 10000 nM; EC50 ([2]; CV-1 cells, pRShRARβ, D-MTV-LUC reporter, 40 hours, potency = EC50): 130 nM; EC50 ([3]; CV-1 cells, pRShRARγ, D-MTV-LUC reporter, 40 hours, potency = EC50): 320 nM; EC50 ([4]; CV-1 cells, pRShRXRα, CRBPIIFKLUC reporter, 40 hours, potency = EC50): 58 nM; EC50 ([5]; CV-1 cells, pRSmRXRβ, CRBPIIFKLUC reporter, 40 hours, potency = EC50): 28 nM; EC50 ([6]; CV-1 cells, pRSmRXRγ, CRBPIIFKLUC reporter, 40 hours, potency = EC50): 78 nM

Source: patent EP0800503B1, “NOVEL TRIENOIC RETINOID COMPOUNDS AND METHODS” (LIGAND PHARMACEUTICALS, INC., priority 1994, dated 1996)
